Values after ≈ are worked out from the molar mass of the structure shown. Bounds are passed on as bounds.

For one test, the system named is E. faecalis EFA-1299. Briefly: MIC determination. It is filed as cell-based. The following applies: Enterococcus faecalis, EFA1299.
Test [1] has as its system A. baumannii ATCC BAA-1605. Briefly: MIC determination. It counts as cell-based. The following applies: Acinetobacter baumannii, ATCCBAA1605.
Another test deals with H. influenzae ATCC 49247. Briefly: MIC determination. It counts as cell-based. The following applies: Haemophilus influenzae, ATCC49247.
Another test relates to S. epidermidis SEP-1024. Briefly: MIC determination. It is filed as cell-based. The following applies: Staphylococcus epidermidis, SEP1024.
A further test concerns S. pneumoniae SPN-1169. Briefly: MIC determination. The following applies: Streptococcus pneumoniae, SPN1169. It is filed as cell-based.
Test [2] has as its system S. aureus SAU-9922 (MRSA). Briefly: MIC determination. The following applies: Staphylococcus aureus. It is filed as cell-based.
For test [3], the system named is E. faecium EFA-0221 (VRE). Briefly: MIC determination. It is filed as cell-based. The following applies: Enterococcus faecium.
Test [4] deals with S. aureus SAU-0167 (MRSA). Briefly: MIC determination. It counts as cell-based. The following applies: Staphylococcus aureus.
For the next test, the system named is S. maltophilia STM-0001. Briefly: MIC determination. The following applies: Stenotrophomonas maltophilia, STM0001. It is filed as cell-based.
The subject of another test is S. pyogenes SPY-0253. Briefly: MIC determination. It is filed as cell-based. The following applies: Streptococcus pyogenes, SPY0253.
Another test relates to M. abscessus-C58. Briefly: MIC determination (Microplate Alamar Blue Assay). It counts as cell-based, Mycobacterium abscessus. The following applies: Mycobacteroides abscessus; M. abscessus-C58, 72 h. On the technique in general: The colour change of resazurin is a common sign of viable cells or microbes.
Another test deals with E. coli ATCC 25922. Briefly: MIC determination. It is filed as cell-based. The following applies: Escherichia coli, ATCC25922.
For the next test, the system named is M. abscessus-C28. Briefly: MIC determination (Microplate Alamar Blue Assay). The following applies: Mycobacteroides abscessus, 72 h. It counts as cell-based, Mycobacterium abscessus.
For another test, the system named is E. faecalis ATCC 29212. Briefly: MIC determination. It is filed as cell-based. The following applies: Enterococcus faecalis, ATCC29212.
In test [5] the test system is M. bovis BCG (Pasteur 1173P2). Briefly: microbe, parasite or virus in culture. It counts as cell-based. The following applies: Mycobacterium tuberculosis variant bovis BCG, 168 h.
For the next test, the system named is M. abscessus-C16. Briefly: MIC determination (Microplate Alamar Blue Assay). It counts as cell-based, Mycobacterium abscessus. The following applies: Mycobacteroides abscessus; M. abscessus-C16, 72 h.
For the next test, the system named is A. baumannii ATCC 17978. Briefly: MIC determination. It counts as cell-based. The following applies: Acinetobacter baumannii, ATCC17978.
In the next test the test system is M. smegmatis mc^2155. Briefly: MIC determination (Microplate Alamar Blue Assay). It counts as cell-based. The following applies: Mycolicibacterium smegmatis; M. smegmatis mc^2155, 72 h.
A further test has as its system P. aeruginosa ATCC 27853. Briefly: MIC determination. It counts as cell-based. The following applies: Pseudomonas aeruginosa, ATCC27853.
Test [6] deals with M. tuberculosis H37Rv ATCC27294. Briefly: MIC determination (Microplate Alamar Blue Assay). It counts as cell-based, Mycobacterium tuberculosis. The following applies: Mycobacterium tuberculosis, 168 h, M. tuberculosis H37Rv ATCC27294, 7 days; read-out: MIC.
The subject of test [7] is S. aureus ATCC 29213 (MSSA). Briefly: MIC determination. The following applies: Staphylococcus aureus. It counts as cell-based.
Test [8] relates to S. aureus ATCC 700698 (MRSA). Briefly: MIC determination. It is filed as cell-based. The following applies: Staphylococcus aureus.
The subject of test [9] is K. pneumoniae ATCC BAA-1705. Briefly: MIC determination. It counts as cell-based. The following applies: Klebsiella pneumoniae, ATCCBAA1705.
The test system of the next test is M. abscessus-GDI. Briefly: MIC determination (Microplate Alamar Blue Assay). It counts as cell-based, Mycobacterium abscessus. The following applies: Mycobacteroides abscessus, 72 h.

`O=C(O)c1cn(C2CC2)c2cc(N3CCNCC3)c(F)cc2c1=O` [Ciproflox, Ciprofloxacin]: the MIC was 0.25 µg/mL (≈ 0.754 µM) in the test on E. faecalis EFA-1299; over 32 µg/mL in test [1]; at most 0.031 µg/mL against H. influenzae ATCC 49247; 0.25 µg/mL (≈ 0.754 µM) against S. epidermidis SEP-1024; 1 µg/mL (≈ 3.02 µM) in the test with S. pneumoniae SPN-1169; over 32 µg/mL in test [2]. Further, the MIC in test [3] was over 32 µg/mL; in [4] it was over 32 µg/mL; in the test on S. maltophilia STM-0001, 2 µg/mL (≈ 6.04 µM); with S. pyogenes SPY-0253, 0.25 µg/mL (≈ 0.754 µM).

With `CO[C@H]1/C=C/O[C@@]2(C)Oc3c(C)c(O)c4c(O)c(c(/C=N/N5CCN(C)CC5)c(O)c4c3C2=O)NC(=O)/C(C)=C\C=C\[C@H](C)[C@H](O)[C@@H](C)[C@@H](O)[C@@H](C)[C@H](OC(C)=O)[C@@H]1C` [Rifampicin], the MIC was over 20 µg/mL against M. abscessus-C58; 8 µg/mL (≈ 9.72 µM) in the test on E. coli ATCC 25922; 1 µg/mL (≈ 1.22 µM) against E. faecalis EFA-1299; over 20 µg/mL with M. abscessus-C28; 4 µg/mL (≈ 4.86 µM) in [1]; 0.25 µg/mL (≈ 0.304 µM) in the test with H. influenzae ATCC 49247. Moreover, the MIC is 2 µg/mL (≈ 2.43 µM) against E. faecalis ATCC 29212; at most 0.031 µg/mL in test [5]; over 20 µg/mL against M. abscessus-C16; at most 0.031 µg/mL against S. epidermidis SEP-1024; 2 µg/mL (≈ 2.43 µM) in the test with A. baumannii ATCC 17978; 13.3 µg/mL (≈ 16.1 µM) against M. smegmatis mc^2155. The MIC against S. pneumoniae SPN-1169 is at most 0.031 µg/mL; in the test with P. aeruginosa ATCC 27853 it was over 32 µg/mL; in test [2] it was at most 0.031 µg/mL; in test [3] it was 4 µg/mL (≈ 4.86 µM); in test [6] it was 0.031 µg/mL (≈ 0.0377 µM); in [4] it was at most 0.031 µg/mL. The MIC in [7] is 0.0063 µg/mL (≈ 0.00766 µM); in test [8], at most 0.031 µg/mL; in the test on S. maltophilia STM-0001, 16 µg/mL (≈ 19.4 µM); in test [9], over 32 µg/mL; in the test with S. pyogenes SPY-0253 it was 0.063 µg/mL (≈ 0.0766 µM); in the test on M. abscessus-GDI, over 20 µg/mL.

Turning to `NCC[C@H](O)C(=O)N[C@@H]1C[C@H](N)[C@@H](O[C@H]2O[C@H](CN)[C@@H](O)[C@H](O)[C@H]2O)[C@H](O)[C@H]1O[C@H]1O[C@H](CO)[C@@H](O)[C@H](N)[C@H]1O` [Amikacin], the MIC was 12.8 µg/mL (≈ 21.9 µM) against M. abscessus-C58; 8 µg/mL (≈ 13.7 µM) against E. coli ATCC 25922; over 32 µg/mL against E. faecalis EFA-1299; 14.5 µg/mL (≈ 24.7 µM) against M. abscessus-C28; over 32 µg/mL against E. faecalis ATCC 29212; 12.7 µg/mL (≈ 21.7 µM) with M. abscessus-C16. The MIC against S. epidermidis SEP-1024 was at most 1 µg/mL; against A. baumannii ATCC 17978, 2 µg/mL (≈ 3.42 µM); with S. pneumoniae SPN-1169 it was over 32 µg/mL; against P. aeruginosa ATCC 27853 it was 8 µg/mL (≈ 13.7 µM); in test [2] it was 2 µg/mL (≈ 3.42 µM); in test [3], over 32 µg/mL. In addition, the MIC is over 32 µg/mL in [4]; 8 µg/mL (≈ 13.7 µM) in test [7]; over 32 µg/mL in test [8]; over 32 µg/mL in the test on S. maltophilia STM-0001; over 32 µg/mL in [9]; 32 µg/mL (≈ 54.6 µM) against S. pyogenes SPY-0253. In the test on M. abscessus-GDI, this compound had an MIC of 6.38 µg/mL (≈ 10.9 µM).

The values are drawn from publication PMC10302868 (Molecules, 2023).
